For this experiment, the target named is T1, human GPR109A (Homo sapiens, UniProt Q8TDS4).
T1 construct: expressed in transfected cells
Briefly: Intracellular cAMP levels in forskolin-treated GPR109A-expressing colonic cells, measured by fluorescence (cAMP-Glo Assay). The following applies: cAMP reduction in forskolin-treated cells; read-out: EC50 to activate the GPR109A receptors. Type of experiment: cell-based.

Molecules are shown by their SMILES.

T1 sequence (Q8TDS4 whole entry): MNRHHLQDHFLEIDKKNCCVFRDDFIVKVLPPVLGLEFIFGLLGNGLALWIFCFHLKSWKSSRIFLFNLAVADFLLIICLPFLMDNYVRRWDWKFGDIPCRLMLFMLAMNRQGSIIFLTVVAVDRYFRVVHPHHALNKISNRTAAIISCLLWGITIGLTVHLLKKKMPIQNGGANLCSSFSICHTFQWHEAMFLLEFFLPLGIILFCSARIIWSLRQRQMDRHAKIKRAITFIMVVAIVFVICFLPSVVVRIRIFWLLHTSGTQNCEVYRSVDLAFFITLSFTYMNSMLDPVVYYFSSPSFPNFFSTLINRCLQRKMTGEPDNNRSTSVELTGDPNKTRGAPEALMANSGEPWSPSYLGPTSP
Description: The activity of GI-coupled receptors like GPR109A is normally assessed by showing a reduction in cellular levels of cAMP in forskolin-treated cells. This is normally done using the commercially available kit, cAMP-Glo™ Assay. […] When a GI-coupled receptor is activated in forskolin-treated cells, cAMP levels will go up.

As to `CC(C)(O)CC(=O)O` [HMB, beta-hydroxy-beta-methylbutyrate], the EC50 lay in the range of 250 to 2500 µM.

In general, EC50 refers to the concentration at which the effect is half-maximal.

(Values after US20230112641A1, “METHODS OF TREATING DIARRHEA OR INFLAMMATORY CONDITIONS OF THE GUT” (ABBOTT LABORATORIES, priority 2020, published 2023).)
